Measured values reported in US9676691B2, “Method for producing indanone derivatives” (SYMRISE AG, priority 2011, dated 2017).

What was measured:
[1] = Examination of the crystallisation in emulsion; format: physicochemical; conditions: with respect to the entire mass of the cosmetic formulation (0.025% by weight)
Text: According to the indications in the following Table 1, two cosmetic formulations were produced as emulsions [E(I) and E (II)]. The product from example 1a contained pure 2-benzylidene-3,3-dimethyl-5,6-dimethoxy-1-indanone and was used in the emulsion E(I). For the emulsion E(II), 2-benzylidene-3,3-dimethyl-5,6-dimethoxy-1-indanone from example 1a was used, but it was contaminated with benzyl-3,3-dimethyl-5,6-dimethoxy-1-indanone in such a manner that a 5% by weight contamination was present, with respect to the total mass of the contaminated product.
The emulsions were covered and left to stand at ambient temperature for 3 days. Subsequently, the emulsions were examined under a microscope. Emulsion E(I) had no crystals. In emulsion E(II), crystal seeds having a size of from 4 to 7 μm were able to be observed.

[2] = Solubility in cosmetic oils; format: physicochemical; conditions: in contrast to the target product

COc1cc2c(cc1OC)C(C)(C)C(Cc1ccccc1)C2=O (centres unmarked) [2-benzyl-3,3-dimethyl-5,6-dimethoxy-1-indanone]
proportion of by-product that initiates the formation of crystallisation seeds in the cosmetic formulation [1]: 250 ppm | solubility in cosmetic oils [2]: cannot be readily dissolved in cosmetic oils
